The text below walks through data of ChEMBL document CHEMBL5244238, “Targeting mTOR for fighting diseases: A revisited review of mTOR inhibitors” (Eur J Med Chem, 2020).

For orientation: IC50 means the point on the concentration scale where inhibition reaches its midpoint. A high value points to weaker potency. A word on the half-life: it is the time needed for the level to fall by half in the phase considered.

The target of data set [1] is Serine/threonine-protein kinase mTOR (Homo sapiens, UniProt P42345).
Description: Inhibition of mTOR (unknown origin)
A short description of another data set: clinical. Particulars: human.
The species named for the next data set is Homo sapiens. The data set is described as follows: Selectivity index, ratio of IC50 for PI3Kalpha (unknown origin) to IC50 for mTOR (unknown origin). It counts as functional.
The subject of the next data set is MIA PaCa-2. Briefly: cells. As to conditions: Homo sapiens.
The subject of the next data set is HeLa. The data set is described as follows: cells. Particulars: Homo sapiens.
Another data set concerns PC-3. The data set is described as follows: cells. Particulars: Homo sapiens.
A further data set concerns A549. Briefly: cells. As to conditions: Homo sapiens.
For a further data set, the system named is CAKI-1. Briefly: cells. As to conditions: Homo sapiens.
For a further data set, the system named is MCF7. Briefly: Antiproliferative activity against human MCF7 cells. It counts as functional, cell-based.

Description for A549: Antiproliferative activity against human A549 cells
Description for CAKI-1: Antiproliferative activity against human CAKI-1 cells
Description for HeLa: Antiproliferative activity against human HeLa cells
Description for MIA PaCa-2: Antiproliferative activity against human MIA PaCa-2 cells
Description for PC-3: Antiproliferative activity against human PC-3 cells

`C[C@H]1COCCN1c1nc(-c2ccc(NC(=O)NCC(F)F)cc2)cc(-c2cc(F)ccc2S(C)(=O)=O)n1` had a half-inhibitory concentration (IC50) in data set [1] of under 1000 nM. The compound `CO[C@H]1C[C@@H]2CC[C@@H](C)[C@@](O)(O2)C(=O)C(=O)N2CCCC[C@H]2C(=O)O[C@H]([C@H](C)C[C@@H]2CC[C@@H](O)[C@H](OC)C2)CC(=O)[C@H](C)/C=C(\C)[C@@H](O)[C@@H](OC)C(=O)[C@H](C)C[C@H](C)/C=C/C=C/C=C/1C` [SIROLIMUS] showed a half-life in the data set “clinical” of 2400 min.

In the case of `O=C(c1ccc(C(=O)C(F)(F)F)cc1)N1CCOc2ccc(-c3cnc4ccccc4c3)cc2C1`, half-maximal inhibition in [1] (IC50) required 95 nM. The Ratio IC50 in the data set listed under Homo sapiens amounted to 4. In the case of `CCOC(=O)N1Cc2nc(-c3ccc(NC(=O)NC4CC4)cc3)nc(N3CCOC[C@@H]3C)c2C1`, the IC50 in data set [1] is under 1000 nM. As for `CCCc1nn(C)c2c(=O)[nH]c(-c3cc(OC)cc(OC)c3)nc12`, the IC50 with MIA PaCa-2 came out at 24 µM; with HeLa it was 19 µM; with PC-3, 38 µM; with A549 it was 14 µM; in the data set on CAKI-1, 17 µM. With `CCc1ccc(C(=O)c2cnc3cc4c(cc3c2N2CCC(C(N)=O)CC2)OCCO4)cc1`, the values for the IC50 in the data set with MCF7 and in the data set on A549 were 2000 nM and 8 µM, respectively. `CO[C@H]1C[C@@H]2CC[C@@H](C)[C@@](O)(O2)C(=O)C(=O)N2CCCC[C@H]2C(=O)O[C@H]([C@H](C)C[C@@H]2CC[C@@H](OCCO)[C@H](OC)C2)CC(=O)[C@H](C)/C=C(\C)[C@@H](O)[C@@H](OC)C(=O)[C@H](C)C[C@H](C)/C=C/C=C/C=C/1C` [EVEROLIMUS] returned an IC50 in data set [1] of 5 nM. Still for that read-out and setting: for `COc1ccc(C2Cc3c(C)nc(N)nc3N([C@H]3CC[C@H](OCCO)CC3)C2=O)cn1` (some centres undefined) the value was 16 nM.
